Results from ChEMBL document CHEMBL1201862, “PubChem BioAssay data set” (2004).
Activity calls are given as the source filed them.

Legend:
[1] = rise of 2N DNA cells, HeLa – IC50, dose response (AID 1117349); type: functional, cell-based
[2] = IC50 of insulin release inhibition, rat insulinoma INS-1E line, 5 mM glucose, cell-based (AID 1117331); type: functional
[3] = glucagon-like peptide-1 release potency in STC-1, concentration-response, half-maximal inhibitory concentration in the STC-1 line (AID 1117345); type: functional, cell-based
[4] = rise of 4N DNA cells, HeLa – IC50, dose response (AID 1117351); type: functional, cell-based
[5] = Potency on glucagon-like peptide 1 release, dose-response in NCI-H716 cell line, half maximal inhibitory concentration (AID 1117344); type: functional, cell-based
[6] = reduction of Shn3 3'UTR-driven luciferase in osteoblasts – cell-based, Clone20 osteoblasts, firefly luciferase, cherry-picked, dose response (AID 624132); type: functional;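 also: firefly luciferase luminescence from reporter carrying the Shn3 3'UTR in osteoblasts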
[7] = loss of viability in HepG2 cells – cell-based, CellTiter-Glo, cherry-picked, cytotoxicity control for Shn3 inhibitor project, dose response (AID 624134); type: functional
[8] = non-specific 3'UTR reporter inhibition in Clone20-Shn3RL – cell-based, Renilla luciferase, cherry-picked, counter-screen for Shn3 inhibitor project, dose response (AID 624133); type: functional
[9] = biological target: COUP transcription factor 2 (Homo sapiens, UniProt P24468); assay: Luminescence-based cell-based high throughput dose response assay to identify inhibitors of COUP-TFII (NR2F2).; type: functional;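 also: HEK293 cells transiently cotransfected with COUP-TFII expression vector and reporter; luciferase reporter luminescence driven by COUP-TFII from the pX2-168 reporter plasmid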
Phospholipase D2 = Phospholipase D2 (Homo sapiens, UniProt O14939); assay: PLD2 Cellular Concentration Response Study.; type: functional
Phospholipase D1 = Phospholipase D1 (Homo sapiens, UniProt Q13393); assay: PLD1 Cellular Concentration Response Study.; type: functional
[10] = viability inhibitors of stage V gametocytes – luminescence, dose response (AID 1117278); type: functional, cell-based;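 also: gametocytes exposed to compound for 24 hours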
[11] = viability loss in human Jurkat cells – cell-based, luminescence, cytotoxicity control for P. falciparum gametocyte viability project, dose response (AID 1117277); type: functional;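 also: potency reflects loss of cellular ATP meaning fewer viable cells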
[12] = biological target: T1, Oxysterols receptor LXR-beta (Homo sapiens, UniProt P55055); type: functional, cell-based;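 also: Cell-based luminescence dose-response assay of agonist activity at LXR, run as a confirmatory counterscreen to a daf-12 agonist screen; agonist potency from rising luciferase signal of a Gal4-LXR reporter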
T1 sequence (P55055 whole entry): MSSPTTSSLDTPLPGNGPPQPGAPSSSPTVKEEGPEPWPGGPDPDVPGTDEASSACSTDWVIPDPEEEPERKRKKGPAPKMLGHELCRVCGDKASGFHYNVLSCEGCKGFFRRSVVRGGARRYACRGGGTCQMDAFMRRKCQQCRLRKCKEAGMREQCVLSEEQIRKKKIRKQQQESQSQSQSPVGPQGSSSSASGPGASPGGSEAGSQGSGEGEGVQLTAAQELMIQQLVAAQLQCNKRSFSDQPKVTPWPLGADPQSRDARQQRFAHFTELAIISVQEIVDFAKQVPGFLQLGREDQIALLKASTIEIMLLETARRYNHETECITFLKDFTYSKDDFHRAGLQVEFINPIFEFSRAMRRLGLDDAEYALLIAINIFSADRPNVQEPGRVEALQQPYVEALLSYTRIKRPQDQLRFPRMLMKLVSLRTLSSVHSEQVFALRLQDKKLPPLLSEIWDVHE

[13] = reduced cellular PGC1a acetyl-lysine signal – cell-based, cherry-picked samples, dose response (AID 720514); type: functional;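 also: potency may reflect raised or lowered acetylation signal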
[14] = Dd2 parasite growth inhibition in erythrocytes – SYBR Green, dry powder samples, set 9, dose response (AID 1159568); type: functional, cell-based
Paired box protein Pax-8 = Paired box protein Pax-8 (Homo sapiens, UniProt Q06710); assay: PAX8 transcriptional activity inhibition in RMG-I – RMG-I cells, luciferase, cherry-pick, dose response (AID 687027); type: functional, cell-based;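 also: luciferase reporter driven by Pax8 target thyroperoxidase promoter measured by SteadyGlo luminescence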
[15] = YAP1 overexpression rescue of CTGF inhibition – DLD1 cells, RT-qPCR, cherry-pick, mechanism study for YAP1 pathway inhibitor project, dose response (AID 1053127); type: functional, cell-based; settings: DLD-1
[16] = OVCAR-3 cell viability loss – plate reader, dry powder samples, PAX8 inhibitor project, dose response (AID 743044); type: functional, cell-based
[17] = IGROV1 cell killing – plate reader, dry powder samples, PAX8 inhibitor project, dose response (AID 743043); type: functional, cell-based; settings: IGROV-1
[18] = CTGF mRNA reduction in DLD1 cells – cell-based, DLD1 colon cancer, RT-qPCR, cherry-pick, dose response (AID 1053122); type: functional; settings: Cancer cell lines
[19] = OVCAR8 cell viability loss – plate reader, dry powder samples, PAX8 project, dose response (AID 743197); type: functional, cell-based; settings: OVCAR-8
[20] = Luminescence-based cell-based high throughput dose response assay to identify activators of the DAF-12 from the parasite S. stercoralis (ssDAF-12).; type: functional
[21] = biological target: T1, Oxysterols receptor LXR-beta; assay: LXR agonists, Gal4 luciferase reporter, dose response, counter-screen for ssDAF-12 agonist project, cell-based, luminescence, HEK293, S. stercoralis campaign (AID 720737); type: functional; settings: read-out: IC50 (the source's name)
[22] = biological target: T2, Low molecular weight phosphotyrosine protein phosphatase (Homo sapiens, UniProt P24666); assay: inhibition of LMPTP-A enzymatic activity – biochemical, OMFP substrate, fluorescence intensity, set 2, dose response (AID 743307); type: functional
T2 sequence (P24666 whole entry): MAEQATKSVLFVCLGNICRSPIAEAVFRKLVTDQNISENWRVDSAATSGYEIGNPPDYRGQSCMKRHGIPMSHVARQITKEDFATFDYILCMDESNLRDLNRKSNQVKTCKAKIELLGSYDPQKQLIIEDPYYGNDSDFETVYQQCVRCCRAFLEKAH

[23] = biological target: T2, Low molecular weight phosphotyrosine protein phosphatase; assay: inhibition of human LMPTP enzyme activity – biochemical, absorbance, pNPP substrate, LMPTP-A isoform, set 2, orthogonal assay, dose response (AID 743308); type: functional
[24] = COV362 cell viability loss – plate reader, dry powder, SA12, cytotoxicity control for PAX8 inhibitor project, dose response (AID 743144); type: functional, cell-based
[25] = toxicity toward immortalized ovarian surface epithelium – cell-based, plate reader, dry powder samples, cytotoxicity control for PAX8 inhibitor project, dose response (AID 743045); type: functional
[26] = A2780 cell killing – plate reader, dry powder samples, cytotoxicity control, dose response (AID 743046); type: functional, cell-based
[27] = OVCAR4 cell viability loss – plate reader, dry powder, SA11, cytotoxicity control for PAX8 inhibitor project, dose response (AID 743150); type: functional, cell-based; settings: OVCAR-4
[28] = COV434 cell viability loss – plate reader, dry powder, SA7, cytotoxicity control for PAX8 inhibitor project, dose response (AID 743145); type: functional, cell-based
[29] = OV-90 cell viability loss – plate reader, dry powder, SA8, PAX8 inhibitor project, dose response (AID 743149); type: functional, cell-based
[30] = PAX8-dependent cell viability loss – plate reader, dry powder, dose response (AID 743049); type: functional, cell-based
[31] = biological target: T3, Heat shock factor protein 1 (Mus musculus, UniProt P38532); assay: enhancement of HSF1-driven luciferase signal – cell-based, NIH3T3, luminescence, dose retest, confirmation (AID 435004); type: functional;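 also: stress induced by proteasome inhibitor MG132 added 30 min after compound; luciferase reporter driven by HSF1 response element in NIH3T3 cells; actives raise luminescence as potentiators of the MG132 stress response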
T3 sequence (P38532 whole entry): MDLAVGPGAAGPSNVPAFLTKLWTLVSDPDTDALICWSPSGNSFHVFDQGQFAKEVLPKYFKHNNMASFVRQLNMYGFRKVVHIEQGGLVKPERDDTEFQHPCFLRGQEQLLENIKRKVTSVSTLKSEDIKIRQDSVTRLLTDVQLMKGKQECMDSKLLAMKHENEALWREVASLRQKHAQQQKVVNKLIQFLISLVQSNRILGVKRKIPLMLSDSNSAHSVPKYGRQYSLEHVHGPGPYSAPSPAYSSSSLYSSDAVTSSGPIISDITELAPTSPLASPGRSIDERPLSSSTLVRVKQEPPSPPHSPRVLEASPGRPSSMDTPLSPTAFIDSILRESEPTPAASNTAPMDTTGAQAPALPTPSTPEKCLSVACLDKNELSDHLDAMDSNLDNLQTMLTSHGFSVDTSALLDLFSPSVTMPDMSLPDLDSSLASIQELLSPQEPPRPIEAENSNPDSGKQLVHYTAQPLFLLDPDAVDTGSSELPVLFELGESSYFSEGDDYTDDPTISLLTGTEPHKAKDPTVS

[32] = potency of ADAM10 substrate cleavage blockers – biochemical, QFRET, dose response (AID 743254);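 also: ADAM10 enzyme with the DM2 quenched FRET peptide as substrate; EDANS fluorescence gain as the protease cuts the substrate; inhibitor potency against ADAM10 proteolytic activity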
[33] = biological target: Disintegrin and metalloproteinase domain-containing protein 17 (Homo sapiens, UniProt P78536); assay: inhibition of ADAM17 substrate cleavage – biochemical, quenched FRET substrate, counter-screen for ADAM10 exosite inhibitor project, dose response (AID 743253)
Sequence of Disintegrin and metalloproteinase domain-containing protein 17 (P78536 whole entry, the tested form may be a part): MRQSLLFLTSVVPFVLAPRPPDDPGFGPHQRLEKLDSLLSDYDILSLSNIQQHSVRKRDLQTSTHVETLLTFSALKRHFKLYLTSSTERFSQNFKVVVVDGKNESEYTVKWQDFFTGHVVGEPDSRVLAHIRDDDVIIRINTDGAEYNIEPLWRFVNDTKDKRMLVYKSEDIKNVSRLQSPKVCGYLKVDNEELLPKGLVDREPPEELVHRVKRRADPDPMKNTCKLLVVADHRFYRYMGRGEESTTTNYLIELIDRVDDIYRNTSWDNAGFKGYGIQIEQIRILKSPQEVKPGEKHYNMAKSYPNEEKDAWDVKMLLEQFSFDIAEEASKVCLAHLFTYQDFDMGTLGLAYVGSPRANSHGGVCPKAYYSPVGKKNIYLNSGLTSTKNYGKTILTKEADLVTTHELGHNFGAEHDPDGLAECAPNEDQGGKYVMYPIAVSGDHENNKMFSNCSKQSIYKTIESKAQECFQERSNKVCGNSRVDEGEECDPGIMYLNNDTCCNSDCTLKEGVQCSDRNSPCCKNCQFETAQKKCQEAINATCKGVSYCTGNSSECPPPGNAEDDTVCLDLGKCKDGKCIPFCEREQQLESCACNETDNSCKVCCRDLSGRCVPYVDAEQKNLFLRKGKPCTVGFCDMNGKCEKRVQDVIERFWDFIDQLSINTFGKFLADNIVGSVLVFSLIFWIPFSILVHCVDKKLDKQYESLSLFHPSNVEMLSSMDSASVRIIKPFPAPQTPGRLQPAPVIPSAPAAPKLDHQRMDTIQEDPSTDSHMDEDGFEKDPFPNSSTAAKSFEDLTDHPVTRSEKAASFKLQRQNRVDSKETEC

Sequence of Paired box protein Pax-8 (Q06710 whole entry): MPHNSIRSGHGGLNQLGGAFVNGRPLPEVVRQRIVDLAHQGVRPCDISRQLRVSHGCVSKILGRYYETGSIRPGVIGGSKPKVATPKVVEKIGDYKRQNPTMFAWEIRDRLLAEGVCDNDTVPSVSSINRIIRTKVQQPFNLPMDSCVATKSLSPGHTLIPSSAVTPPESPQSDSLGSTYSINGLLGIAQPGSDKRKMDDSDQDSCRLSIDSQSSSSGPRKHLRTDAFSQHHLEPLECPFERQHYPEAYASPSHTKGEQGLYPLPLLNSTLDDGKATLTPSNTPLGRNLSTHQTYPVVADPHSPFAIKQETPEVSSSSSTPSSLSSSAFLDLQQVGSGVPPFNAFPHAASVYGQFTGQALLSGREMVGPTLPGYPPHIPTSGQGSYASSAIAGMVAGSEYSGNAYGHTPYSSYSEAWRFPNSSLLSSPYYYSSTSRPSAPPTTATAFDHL
Sequence of COUP transcription factor 2 (P24468 whole entry): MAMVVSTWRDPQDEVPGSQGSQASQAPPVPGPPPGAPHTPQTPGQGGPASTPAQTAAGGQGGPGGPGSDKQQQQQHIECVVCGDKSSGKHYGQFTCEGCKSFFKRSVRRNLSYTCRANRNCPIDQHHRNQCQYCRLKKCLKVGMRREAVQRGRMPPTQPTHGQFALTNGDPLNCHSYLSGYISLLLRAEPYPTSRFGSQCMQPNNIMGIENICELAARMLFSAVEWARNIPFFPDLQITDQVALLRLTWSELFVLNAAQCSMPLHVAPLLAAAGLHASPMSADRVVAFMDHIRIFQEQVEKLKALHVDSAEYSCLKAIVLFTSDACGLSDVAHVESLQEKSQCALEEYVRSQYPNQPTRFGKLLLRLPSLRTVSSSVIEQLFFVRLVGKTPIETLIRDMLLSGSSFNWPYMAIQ
Sequence of Phospholipase D1 (Q13393 whole entry): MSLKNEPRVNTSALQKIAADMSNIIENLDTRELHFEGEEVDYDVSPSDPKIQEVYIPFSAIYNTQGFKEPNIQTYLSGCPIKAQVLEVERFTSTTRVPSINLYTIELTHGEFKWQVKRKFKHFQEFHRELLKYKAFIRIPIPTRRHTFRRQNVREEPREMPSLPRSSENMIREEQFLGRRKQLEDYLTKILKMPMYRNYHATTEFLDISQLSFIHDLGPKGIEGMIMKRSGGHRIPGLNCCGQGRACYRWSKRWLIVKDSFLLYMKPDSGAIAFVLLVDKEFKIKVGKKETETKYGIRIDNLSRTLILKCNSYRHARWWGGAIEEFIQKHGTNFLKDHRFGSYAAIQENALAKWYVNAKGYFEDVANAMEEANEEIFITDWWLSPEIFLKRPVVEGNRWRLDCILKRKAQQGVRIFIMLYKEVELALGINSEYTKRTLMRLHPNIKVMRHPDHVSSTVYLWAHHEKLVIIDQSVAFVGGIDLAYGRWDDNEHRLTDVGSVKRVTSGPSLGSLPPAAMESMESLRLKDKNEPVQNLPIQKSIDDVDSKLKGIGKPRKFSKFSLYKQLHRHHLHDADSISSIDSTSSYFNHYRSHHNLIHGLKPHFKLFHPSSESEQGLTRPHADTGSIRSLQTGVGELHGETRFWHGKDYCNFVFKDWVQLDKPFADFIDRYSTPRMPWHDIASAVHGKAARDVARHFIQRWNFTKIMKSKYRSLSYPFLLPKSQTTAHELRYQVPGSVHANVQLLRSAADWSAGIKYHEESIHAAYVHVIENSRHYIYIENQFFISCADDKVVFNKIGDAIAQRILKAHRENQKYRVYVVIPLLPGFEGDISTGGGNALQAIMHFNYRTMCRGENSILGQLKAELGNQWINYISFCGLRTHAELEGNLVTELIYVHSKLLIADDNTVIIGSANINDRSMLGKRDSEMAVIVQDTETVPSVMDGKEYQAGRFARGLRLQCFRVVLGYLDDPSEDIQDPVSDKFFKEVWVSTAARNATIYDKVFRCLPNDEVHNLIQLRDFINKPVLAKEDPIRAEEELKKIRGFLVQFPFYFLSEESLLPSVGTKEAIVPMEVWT
Sequence of Phospholipase D2 (O14939 whole entry): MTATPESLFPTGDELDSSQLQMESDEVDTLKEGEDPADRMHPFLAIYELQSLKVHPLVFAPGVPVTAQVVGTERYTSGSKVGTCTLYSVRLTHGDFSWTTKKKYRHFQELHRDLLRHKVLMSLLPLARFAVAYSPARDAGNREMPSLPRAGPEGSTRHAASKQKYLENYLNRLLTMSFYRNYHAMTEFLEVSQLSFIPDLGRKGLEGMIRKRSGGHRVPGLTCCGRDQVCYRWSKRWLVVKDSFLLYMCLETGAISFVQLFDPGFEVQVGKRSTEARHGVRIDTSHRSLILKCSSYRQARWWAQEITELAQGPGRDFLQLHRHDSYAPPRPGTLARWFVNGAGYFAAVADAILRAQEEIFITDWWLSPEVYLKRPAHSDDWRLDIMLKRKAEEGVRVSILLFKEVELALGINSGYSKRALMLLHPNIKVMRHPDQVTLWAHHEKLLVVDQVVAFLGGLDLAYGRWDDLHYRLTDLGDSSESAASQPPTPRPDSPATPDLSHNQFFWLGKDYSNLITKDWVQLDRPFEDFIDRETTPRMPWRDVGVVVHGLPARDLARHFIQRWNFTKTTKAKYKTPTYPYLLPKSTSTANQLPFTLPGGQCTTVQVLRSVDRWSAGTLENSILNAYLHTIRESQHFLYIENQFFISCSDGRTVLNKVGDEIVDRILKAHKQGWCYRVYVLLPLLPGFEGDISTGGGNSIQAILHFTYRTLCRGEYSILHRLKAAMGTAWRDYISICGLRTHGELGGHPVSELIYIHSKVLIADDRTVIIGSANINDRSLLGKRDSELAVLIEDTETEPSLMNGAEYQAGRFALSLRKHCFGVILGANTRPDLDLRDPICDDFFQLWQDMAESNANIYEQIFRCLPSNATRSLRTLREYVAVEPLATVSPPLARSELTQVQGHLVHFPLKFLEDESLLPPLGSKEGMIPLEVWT

**Q.** For `CCCCCCCCCCCCCCCCCCNC(=O)OC1CCN(C(=O)OC[C@H](COC(=O)N(Cc2cccc[n+]2CC)C(=O)c2ccccc2OC)OC)CC1` [MINOPAFANT], which IC50 [1] is on record?
**A.** Its IC50 is > 10 µM (inactive).

**Q.** What about the IC50 [2] of the same compound?
**A.** The IC50 was 21.7 µM (inactive).

**Q.** And the IC50 [3]?
**A.** The IC50 was 13.8 µM (inactive).

**Q.** What about the IC50 [4] of the same compound?
**A.** The IC50 was > 10 µM (inactive).

**Q.** What about the IC50 [5] of the same compound?
**A.** Its IC50 is 9.52 µM (inactive).

**Q.** Which AC50 [6] does the source give for `Cn1c(=O)c2nc(CCCCCCCCc3nc4ccccc4[nH]3)[nH]c2n(C)c1=O` here?
**A.** The AC50 was 3.98 µM (active).

**Q.** What about the AC50 [7] of the same compound?
**A.** Its AC50 is 3.88 µM (active).

**Q.** What about the AC50 [8] of the same compound?
**A.** The AC50 was 2.89 µM (active).

**Q.** And the IC50 [9]?
**A.** The IC50 was 7.5 µM (active).

**Q.** Which IC50 (Phospholipase D2) does the source give for `COc1cccc(C(=O)N2CNC(=O)C23CCN(CCNC(=O)c2ccc4ccccc4c2)CC3)c1` here?
**A.** The IC50 was 2.05 µM (active).

**Q.** And the IC50 (Phospholipase D1)?
**A.** The IC50 was 19 µM (active).

**Q.** What does the source list for `CC(=O)c1ccc(NC(=O)c2ccc(S(=O)(=O)c3ccccc3)cc2)cc1`?
**A.** IC50 [10]: > 109 µM (inactive); IC50 [11]: > 83.3 µM (inactive)

**Q.** Which EC50 [12] does the source give for `Cc1csc(N/N=C/c2ccccc2F)n1` here?
**A.** Its EC50 is > 67.6 µM (inactive).

**Q.** And the EC50 (cells)?
**A.** The EC50 was > 67.6 µM (inactive).

**Q.** With `Fc1cccc(CN2C[C@@H]3N[C@H](C2)[C@@H]3c2ccc(/C=C/c3ccccc3)cc2)c1` as the compound, how does the AC50 [13] read?
**A.** Its AC50 is 13.4 µM (active).

**Q.** And the AC50 [14]?
**A.** Its AC50 is 4.6 µM (active).

**Q.** With `O=C(Cc1ccncc1)N1CCCCN2[C@H](C1)[C@H](c1ccc(C#Cc3ccccc3F)cc1)[C@@H]2CO` as the compound, how does the AC50 (Paired box protein Pax-8) read?
**A.** The AC50 was 7.15 µM (active).

**Q.** And the AC50 [15]?
**A.** The AC50 was 0.102 µM (active).

**Q.** And the AC50 [16]?
**A.** Its AC50 is 3.05 µM (active).

**Q.** What about the AC50 [17] of the same compound?
**A.** Its AC50 is 10.3 µM (active).

**Q.** What about the AC50 [18] of the same compound?
**A.** The AC50 was 0.175 µM (active).

**Q.** And the AC50 [19]?
**A.** Its AC50 is > 70 µM (inactive).

**Q.** Which results are given for `Cc1ccc([N+](=O)[O-])c2c1C(N1CC(C)OC(C)C1)C(C)(C)O2` (stereo not given)?
**A.** IC50 [20]: > 67.6 µM (inactive); EC50 [21]: > 67.6 µM (inactive)

**Q.** With `CN(C)CCNc1nc(-c2ccccc2)nc2ccccc12` as the compound, how does the IC50 [22] read?
**A.** Its IC50 is 58.1 µM (inactive).

**Q.** What about the IC50 [23] of the same compound?
**A.** Its IC50 is > 80 µM (inactive).

**Q.** Which results are given for `O=C(CCCN1C(=O)/C(=C\c2cccc(Br)c2)SC1=S)Nc1cccnc1`?
**A.** AC50 (Paired box protein Pax-8): 7.56 µM (active); AC50 [24]: 30.3 µM (active); AC50 [25]: 24.8 µM (active); AC50 [26]: 17.9 µM (active); AC50 [16]: 12 µM (active); AC50 [17]: 12.5 µM (active); AC50 [27]: 30.3 µM (active); AC50 [28]: 31.6 µM (active); AC50 [29]: 25.7 µM (active); AC50 [30]: 12.1 µM (active)

**Q.** For `O=C(Nc1cccc(Cl)c1)c1cc(S(=O)(=O)NCCc2ccc(Cl)cc2)ccc1F`, which EC50 [31] is on record?
**A.** The EC50 was > 260 µM (inactive).

**Q.** And the IC50 [32]?
**A.** Its IC50 is > 7.72 µM (active).

**Q.** And the IC50 [33]?
**A.** The IC50 was > 69.5 µM (inactive).
